Measured values published in patent US20070197509A1, “Compositions and methods for modulating gated ion channels” (PainCeptor Pharma Corporation, priority 2005, published 2007).
“Also recorded” adds a separate entry of the source.

Columns and labels:
formalin-induced pain = experiment: Formalin test, model of acute tonic pain; format: in vivo; settings: rat
Protocol: Male Sprague-Dawley rats are housed together in groups of three animals under standard conditions with unrestricted access to food and water. All experiments are conducted according to the ethical guidelines for investigations of experimental pain in conscious animals (Zimmerman, 1983)
Assessment of formalin-induced flinching behavior in normal, uninjured rats (body weight 150-180 g) was made with the use of an Automated Nociception Analyser (University of California, San Diego, USA). Briefly, this involved placing a small C-shaped metal band (10 mm wide×27 mm long) on the hindpaw of the rat to be tested. The rats (four rats were included in each testing session) were then placed in a cylindrical plexiglass observation chamber (diameter 30.5 cm and height 15 cm) for 20 min for adaptation purposes prior to being administered drug or vehicle according to the experimental paradigm being followed. […] Rats were then returned to their separate observation chambers, each of which were in turn situated upon an enclosed detection device consisting of two electromagnetic coils designed to produce an electromagnetic field in which movement of the metal band could be detected. […] A sampling interval of 1 min was used and on the basis of the resulting response patterns 5 phases of nociceptive behaviour were identified and scored: first phase (P1; 0-5 min), interphase (Int; 6-15 min), second phase (P2; […]), phase 2A (P2A; 16-40 min) and phase 2B (P2B; 41-60 min).
Nociceptive behavior was also determined manually every 5 min by measuring the amount of time spent in each of four behavioral categories: 0, treatment of the injected hindpaw is indistinguishable from that of the contralateral paw; 1, the injected paw has little or no weight placed on it; 2, the injected paw is elevated and is not in contact with any surface; 3, the injected paw is licked, bitten, or shaken. A weighted nociceptive score, ranging from 0 to 3 was calculated by multiplying the time spent in each category by the category weight, summing these products, and dividing by the total time for each 5 min block of time. […]

hASIC3 = target: T1, hASIC3 (Homo sapiens, UniProt Q9UHC3); experiment: Whole-cell patch clamp of acid-evoked currents in CHO cells transfected with hASIC3; format: cell-based; parameters: expressed in transfected cells
T1 sequence (Q9UHC3 1-531): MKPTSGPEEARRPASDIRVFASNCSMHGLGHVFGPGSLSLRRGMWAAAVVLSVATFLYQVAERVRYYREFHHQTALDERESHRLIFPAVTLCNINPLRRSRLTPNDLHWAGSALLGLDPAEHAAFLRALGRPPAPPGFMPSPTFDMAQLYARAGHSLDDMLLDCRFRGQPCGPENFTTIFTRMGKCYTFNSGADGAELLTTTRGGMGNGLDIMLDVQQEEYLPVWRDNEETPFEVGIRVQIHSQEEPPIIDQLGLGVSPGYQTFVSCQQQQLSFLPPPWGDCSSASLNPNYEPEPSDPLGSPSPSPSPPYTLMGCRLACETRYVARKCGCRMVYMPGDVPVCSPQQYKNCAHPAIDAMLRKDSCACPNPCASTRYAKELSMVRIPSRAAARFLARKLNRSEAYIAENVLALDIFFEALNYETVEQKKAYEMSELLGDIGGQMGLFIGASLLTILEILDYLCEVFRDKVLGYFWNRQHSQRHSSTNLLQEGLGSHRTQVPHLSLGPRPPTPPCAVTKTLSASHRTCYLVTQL
Protocol: All experiments are performed at room temperature (20-25° C.) in voltage clamp using conventional whole cell patch clamp methods (Neher, E., et al. (1978) Pfluegers Arch 375:219-228).
Coverslips with the cells are transferred to a 15 μl experimental chamber mounted on the stage of an inverted microscope (IMT-2, Olympus) supplied with Nomarski optics. Cells are continuously superfused with extracellular saline at a rate of 2.5 ml/min. After giga-seal formation, the whole cell configuration is attained by suction. The cells are held at a holding voltage of −60 mV and at the start of each experiment the current is continuously measured for 45 s to ensure a stable baseline. […] Current amplitudes are measured at the peak of the responses, and effect of the compounds is calculated as the amplitude at compound equilibrium divided by the amplitude of the current evoked by the pulse just before the compound was included. […]
FIG. 3 compares the selectivity of Compound R for human ASIC1a versus human ASIC3, both stably transfected in CHO cells. […] FIG. 3C compares the dose-response relationship of Compound R on hASIC1a and hASIC3 [determined by measuring the area under the curve of the response (total charge transfer) and normalized to the control response].

Biological Data (IC50 uM) h3 (PC) (hASIC3; patch clamp (PC), Table A)	Structure (SMILES)	formalin-induced pain, flinching / total pain score (FIG. 5) (formalin-induced pain; i.p. 30 min before formalin, Automated Nociception Analyser, phase 2, n=6)	ED50 (formalin-induced pain; licking and biting episodes in phase IIa of the formalin test (FIG. 7), read-out: ED50 (dose where the pain score is reduced by half))	formalin-induced pain behavior (FIGS. 6A, 6B) (formalin-induced pain; manual scoring, overall pain behaviour and licking/biting, n=6)	effect on acid evoked hASIC3 current amplitude (FIG. 3B) (hASIC3; 30 μM, CHO cells)
	COc1ccc(C(=O)CN2CCN(c3cc(C)nc4ccccc34)CC2)cc1 [Compound A, 1-(4-methoxy-phenyl)-2-[4-(2-methyl-quinolin-4-yl)-piperazin-1-yl]-ethanone]	able to reduce the total pain score behavior; also recorded: dose-dependent reduction of the pain intensity			
inactive	Cc1cc(OC2CCN(Cc3ccccc3)CC2)c2ccccc2n1 [Compound R, 4-(1-benzyl-piperidin-4-yloxy)-2-methyl-quinoline]		~50 mg/kg	dose-dependent effect; also recorded: dose-dependent reduction of the pain behavior	failed to reduce the amplitude of the current; also recorded: failed to inhibit
